Experimental data published in patent EP0162576A1, “Ethanolamine compounds” (GLAXO GROUP LIMITED, priority 1984, dated 1985).
Where a name gives a salt, the structure may show the parent alone.

Experiments:
β2-adrenoreceptors = biological target: T1, β2-adrenoreceptors (Cavia porcellus, UniProt Q8K4Z4); assay: Guinea-pig tracheal strip preparation (relaxation of PGF2a-contracted trachea); type: cell-based; details: equipotent concentration = EC50 test compound / EC50 isoprenaline; tracheal rings contracted with prostaglandin F2a (2.9x10^-6M), 37°
T1 construct: from tissue; host or cells: isolated guinea-pig trachea (tracheal rings)
T1 sequence (Q8K4Z4 whole entry): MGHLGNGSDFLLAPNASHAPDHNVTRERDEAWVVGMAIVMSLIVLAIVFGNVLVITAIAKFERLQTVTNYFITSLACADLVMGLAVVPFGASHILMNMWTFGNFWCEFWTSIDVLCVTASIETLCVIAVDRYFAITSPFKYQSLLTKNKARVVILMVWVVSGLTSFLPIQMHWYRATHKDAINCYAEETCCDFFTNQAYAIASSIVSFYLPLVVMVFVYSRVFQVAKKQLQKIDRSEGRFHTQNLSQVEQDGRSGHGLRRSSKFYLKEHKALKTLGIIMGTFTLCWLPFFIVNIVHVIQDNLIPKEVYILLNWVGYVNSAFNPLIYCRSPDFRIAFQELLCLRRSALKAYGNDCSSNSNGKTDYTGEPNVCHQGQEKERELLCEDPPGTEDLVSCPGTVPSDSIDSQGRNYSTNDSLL
Method: The compounds according to the invention have a selective stimulant action at P2-adrenoreceptors, which furthermore is of a particularly advantageous profile. […] Compounds according to the invention have shown a particularly long duration of action in this test.
The stimulant action at β2-adrenoreceptors of compounds of the invention was determined using the following:
GUINEA-PIG TRACHEAL STRIP PREPARATION
Tracheal rings were mounted in a superfusion apparatus, and continuously superfused with oxygenated physiological (Kreb's) solution containing indomethacin (2.4x10 ^6M) and atropine (4x10^-7M) at 37° at a rate of 2ml/min. Changes in tension of the preparation were measured using an isometric strain gauge. Preparations were contracted for the duration of the test by the inclusion of prostaglandin F2a (2.9x10^-6M) in the superfusion fluid. Two bolus dose-effect curves to the standard, isoprenaline, (1x10^-12-1x10^-9 moles) were obtained at the start of each test in a cumulative fashion, allowing the relaxation obtained with each to reach its own maximum before the next increment was made. On completion of this dose-effect curve, sufficient time was allowed for the tissue to recover (15-30min). After this time, sequential concentration-effect curves were constructed for first isoprenaline and then the test compound. These were constructed as follows: a low concentration (isoprenaline 3x10-^10M; test compound 1x10^-10M) was infused until any response obtained had reached its maximum, then the infusion was stopped and the tissue allowed to recover for a maximum of 30min. After this period the procedure was repeated using progressively increasing concentrations of agonist, and in this way, whole concentration-effect curves obtained. Potency was determined by comparison of the concentration-effect curve thus constructed with that previously obtained for isoprenaline and expressed as equipotent concentration (isoprenaline = 1) i.e. EC50 test compound was calculated.
Duration of action was also measured for each response, and is the time taken from stopping the infusion to 50% recovery. Graphs were drawn for duration times against response magnitude, and from these, duration times for 50% maximum responses were determined.

guinea pigs = assay: Oral administration to guinea pigs, adverse effects; type: in vivo; details: administered orally to guinea pigs at a dose of 5mg/kg
Text: In general, the compounds according to the invention are non-toxic at therapeutically useful doses.

**Q.** COc1ccc(CCOCCCCCCNCC(O)c2ccc(O)c(O)c2)cc1 (stereo not drawn) [Example 17, 4-[l-Hydroxy-2-[[6-[2-(4-methoxyphenyl)ethoxy]hexyl]amino]ethyl]-1,2-benzenediol] was tested. Which “Potency (Isoprenaline = 1)” value (β2-adrenoreceptors) did it give?
**A.** The value was 0.6.

**Q.** Oc1ccc(C(O)CNCCCCCCOCCCCc2ccccc2)cc1O (stereo not shown) [Example 7, 4-[1-Hydroxy-2-[[6-(4-phenylbutoxy)hexyl]amino]ethyl]-1,2-benzenediol] was tested. Which adverse effects (guinea pigs) did it give?
**A.** The adverse effects was “no adverse effects”.

**Q.** Which “Potency (Isoprenaline = 1)” value (β2-adrenoreceptors) does the source give for CC(CCCCCOCCc1ccccc1)NC[C@H](O)c1ccc(O)c(O)c1 (stereo partly drawn) [Example 8, (1R)-4-[1-Hydroxy-2-[1-methyl-6-(2-phenylethoxy)hexyl]amino]ethyl-1,2-benzenediol.] here?
**A.** Its value is 0.4.

**Q.** And the adverse effects (guinea pigs)?
**A.** The adverse effects was “no adverse effects”.

**Q.** With CC(CCCCCOCCc1ccccc1)NCC(O)c1cc(O)cc(O)c1 (stereo not shown) [Example 12, 5-[1-Hydroxy-2-[[1-methyl-6-(2-phenylethoxy)hexyl]amino]ethyl]-1,3-benzenediol benzoate (salt)] as the molecule, how does the “Potency (Isoprenaline = 1)” value (β2-adrenoreceptors) read?
**A.** The value was 0.15.

**Q.** Which “Potency (Isoprenaline = 1)” value (β2-adrenoreceptors) does the source give for CC(CCCCCOCCc1ccccc1)NCC(O)c1ccc(O)c2[nH]c(=O)ccc12 (stereo not shown) [Example 6, 8-Hydroxy-5-[1-hydroxy-2-[[1-methyl-6-(2-phenylethoxy)hexyl]amino]ethyl]-2(1H)-quinolinone] here?
**A.** The value was 0.16.

**Q.** What about the adverse effects (guinea pigs) of the same molecule?
**A.** The adverse effects was “no adverse effects”.

**Q.** How did the “Potency (Isoprenaline = 1)” value (β2-adrenoreceptors) turn out when CC(CCCCCOCCc1ccccc1)NCC(O)c1ccc(O)c(CCO)c1 (stereo not shown) [Example 5, 2-Hydroxy-5-[1-hydroxy-2-[[1-metlayl-6-(2-phenylethoxy)hexyl]amino]ethyl]benzeneethanol hydrochloride (4:3)] was run?
**A.** Its value is 0.17.

**Q.** Which “Potency (Isoprenaline = 1)” value (β2-adrenoreceptors) does the source give for CC(CCCCCOCCc1ccc(F)cc1)NCC(O)c1cc(O)cc(O)c1 (stereo not shown) [Example 14, 5-[2-[[6-[2-(4-Fluorophenyl)ethoxy]-1-methylhexyl]amino]-1-hydroxyethyl]-1,3-benzenediol, benzoate (salt)] here?
**A.** Its value is 0.13.

**Q.** How did the adverse effects (guinea pigs) turn out when Oc1cc(O)cc(C(O)CNCCCCCCOCCCCc2ccccc2)c1 (stereo not shown) [Example 10, 5-[1-Hydroxy-2-[[6-(4-phenylbutoxy)hexyl]amino]ethyl]-1,3-benzenediol] was run?
**A.** The adverse effects was “no adverse effects”.
